Legend:
Type in all cases: cell-based, human
[1] = system: MRC9 (control cells); experiment: pH2AX foci immunofluorescence 24 h after contacting, MRC9 control fibroblasts; settings: for pH2AX(24 h) + 2xSEM / pH2AX(24 h): MRC9; for pH2AX(24 h): 24 hours after contacting
Method: (§1) the cells are fixed in 3% paraformaldehyde and 2% sucrose for 15 minutes at ambient temperature and permeabilized in 20 mM HEPES buffer solution (4-(2-hydroxyethyl)-1-piperazine ethane sulfonic acid) at pH 7.4, 50 mM NaCl, 3 mM MgCl2, 300 mM sucrose, 0.5% Triton X-100 (a non-ionic surfactant having the formula t-Oct-C6H4-(OCH2CH2)×OH where x=9-10, CAS No. 9002-93-1, supplied for example by Sigma Aldrich) for 3 minutes. The glass coverslips are then washed in phosphate buffer saline (known as the acronym PBS) before immunological staining. The incubation took place for 40 min at 37° C. in PBS supplemented with 2% bovine serum albumin (known as the acronym BSA or fraction V, supplied for example by Sigma Aldrich) and was followed by a wash with PBS. Anti-pH2AX primary antibodies are used at a concentration of 1:800. The incubations with anti-mouse FITC or anti-rabbit TRITC secondary antibodies (1:100, supplied by Sigma Aldrich) were performed at 37° C. in 2% BSA for 20 minutes. Glass coverslips were treated with Vectashield™ containing DAPI (4,6-Diamidino-2-phenylindole) to label the nucleus. Staining with DAPI also makes it possible, indirectly, to determine the number of cells in phase G1 (nuclei with homogenous DAPI staining), in phase S (nuclei with numerous pH2AX foci), in phase G2 (nuclei with heterogeneous DAPI staining) and metaphases (visible chromosomes).
Commercial MRC9 control fibroblasts were amplified according to the recommendations of the supplier (SIGMA-ALDRICH) until the number of cells sought was obtained. After obtaining a sufficient number of cells (generally after one to 3 weeks), the first experiments were conducted using the process according to the invention. The cells were inoculated on glass coverslips in Petri dishes. A portion of these coverslips was then contacted with the medium under test comprising 5FU at a given concentration presented in table 2 hereinafter.
(§2) After contacting with 5FU at a given concentration, the cells were stored in the culture incubator at 37° C. 24 hours after contacting with 5FU at a given concentration as presented in table 2, the mean number of nuclear foci obtained with the marker pH2AX was acquired. The acquisition of the results was carried out using these coverslips on an immunofluorescence microscope (Olympus model). The reading was performed directly by counting the foci obtained with the marker pH2AX on at least 50 cells in G0/G1 for each point or using dedicated image analysis software (imageJ).
In order to obtain results of sufficient statistical reliability to serve as a basis for diagnosis, 3 independent series of experiments were performed. The mean and standard errors of the mean (“SEM” or σ) of each of the numbers of foci acquired after 24 hours of contacting the control cells with 5FU at a given concentration was calculated and presented in table 2.

[2] = system: GM02718 cells; experiment: pH2AX foci immunofluorescence 24 h after contacting, GM02718 cell line; settings: for pH2AX(24 h) + 2xSEM / pH2AX(24 h): GM002718; for pH2AX(24 h): 24 hours after contacting
Method: as §1
The cell line GM02718 was amplified according to the recommendations of the supplier (Coriell Institute) until the number of cells sought was obtained.
(§3) After obtaining a sufficient number of cells (generally after one to 3 weeks), the first experiments were conducted using the process according to the invention. The GM02718, or 03HLS, line cells were inoculated on glass coverslips in Petri dishes. A portion of these coverslips was then contacted with 5FU at a concentration of 30 μM. By way of verification, a further portion of these coverslips was contacted with 5FU at a given concentration (see table 2, see FIG. 2 (B) for the cell line GM02718, respectively FIG. 2 (C) for the cell line 03HLS).
as §2
(§4) In order to obtain results of sufficient statistical reliability to serve as a basis for diagnosis, 3 independent series of experiments were performed. The mean and standard errors of the mean (“SEM” or σ) of each of the numbers of foci acquired after 24 hours of contacting the control cells with 5FU at a given concentration was calculated and presented in table 2 and in FIG. 2 (B) for the cell line GM02718, respectively FIG. 2 (C) for the cell line 03HLS.

[3] = system: 03HLS cells; experiment: pH2AX foci immunofluorescence 24 h after contacting, 03HLS patient skin cell line; settings: for pH2AX(24 h): 24 hours after contacting
Method: as §1
For the line 03 HLS, a skin cell sample from a patient was sampled by biopsy via the “skin punch” method known to those skilled in the art. The cell sample was then placed in DMEM medium+20% sterile fetal calf serum. The cell sample was then transferred without delay to a specialized laboratory, so that the sample remained not more than 38 hours at ambient temperature.
On receipt, the cell sample from the biopsy was established in the form of an amplifiable 03HLS cell line according to a procedure well known to culture laboratories and those skilled in the art: using particularly the trypsin dispersion, the cells are once again diluted in replenished medium and so on until the number of cells sought is obtained.
as §3, §2, §4

[4] = system: HMEC cells; experiment: pH2AX foci 24 h after contacting, Table 4 lower part (HMEC endothelial cells); settings: line cell blank (below Hasp), 24 hours after contacting
Method: (§5) In one embodiment, on receipt, the tissue sample (typically the biopsy) is established in the form of an amplifiable cell line without a viral or chemical transformation agent according to an ancillary procedure well known to culture laboratories, as underlined by the publication of Elkind et al. “The radiobiology of cultured mammalian cell”, Gordon and Breach (1967). Once the number of cells is sufficient (typically after 1 to 3 weeks), the first experiments are carried out using the process according to the invention. A cell sample is prepared: The cells are inoculated on glass coverslips in Petri dishes. A portion of these coverslips are contaminated with metals or pesticides or any other DNA-breaking chemical or biochemical agent at different concentrations. A further portion is not contaminated; it represents the spontaneous state. During contamination, the cells remain in the culture incubator at 37° C.
For the contaminated cells, characteristics are acquired corresponding to the state after an incubation time with the DNA-breaking chemical or biochemical agent. Said characteristics are represented by foci corresponding to the marker pH2AX. The cells on glass coverslips are then fixed, lysed and hybridized. The following procedure, known per se (Bodgi et al, “A single formula to describe radiation-induced protein relocalization: towards a mathematical definition of individual radiosensitivity”, J Theor Biol. 21 p 333:135-45.2013):
as §1
The results are acquired using these coverslips on an immunofluorescence microscope (Olympus model for example). The reading may be direct (typically by counting the foci on at least 50 cells in G0/G1 for each point) or using dedicated image analysis software, or on an automated microscope; preferably the software or automated microscope methods are calibrated with manual determinations.
(§6) The tables hereinafter summarize the results of numerous experiments which were carried out as described in the “Detailed description” section above.
(§7) In tables 3 and 4, “pH2AX” corresponds to the mean number of nuclear foci obtained with the marker pH2AX, 24 hours after contacting the cell sample with the chemical agent at the concentration C (NpH2AX(24 h, C)), and where “Micronuclei” corresponds to the mean number of micronuclei observed per 100 cells 24 hours after contacting the cell sample with the chemical agent at the concentration C(NMN(24 h, C)).

[5] = system: HMEC cells; experiment: Micronuclei per 100 cells 24 h after contacting, Table 4 lower part (HMEC); settings: line cell blank (below Hasp)
Method: as §5, §1
Counterstaining with DAPI (a DNA marker known to those skilled in the art) makes it possible to locate the nucleus to situate the cytoplasmic or nuclear location to quantify the micronuclei, which are complementary cell markers to the data on the foci.
as §6, §7

[6] = system: pH2AX nuclear foci (DNA double-strand breaks); experiment: Single toxicity scale: reference concentration Cref and risk group prediction from NpH2AX(24 h)
Method: (i) if the reference concentration has not previously been determined by the chemical or biochemical agent to be studied, a cell sample is prepared by dispersion and/or amplification of so-called reference cells (sensitivity group I); a plurality of concentrations within a broad concentration range of said breaking agent (said concentration range ranging for example from nM to mM) is applied for a predetermined period of time (preferably 24 hours) on this cell sample; pH2AX immunofluorescence is performed with DAPI counterstaining which also enables on the same cell sample the analysis of micronuclei for all the concentrations applied.
(ii) Either the mean number of nuclear foci observed with the marker pH2AX at the observation times t and at the concentration C (this mean number being referred to as NpH2AX(t, C)), or the mean number of micronuclei per 100 cells at the observation times t and at the concentration C (this mean number being referred to as NMN(t, C)), or the standard error a corresponding to the error committed on these respective measurements which must be performed on at least 50 nuclei once (Gaussian standard error) or 3 independent experiments of 50 nuclei (standard error of the mean).
(iii) The so-called reference concentration Cref is the concentration giving:
NpH2AX(24 h,Cref)+2σ=2 or indeed NMN(24 h,Cref)+2σ=2%;
If for the cell sample NpH2AX(24 h, Cref)<=2 or NMN(24 h, Cref)<=0.5%, preferably NMN(24 h, Cref)<=1% or even more preferentially NMN(24 h, Cref)<=2%, then the genotoxic risk is considered to be low or described as “Group I”
The experimental data presented in table 4 above were used to determine the reference concentration Cref particularly for Pb(NO3)2 (Cref<1 μM) and CdCl2 (Cref=10 μM).
Table 5 presents numerical examples of correspondence between the single toxicity scale according to the invention and the corresponding clinical signs.

## O=c1[nH]cc(F)c(=O)[nH]1 [5FU]
[1]; 5FU 1.00 μM
  pH2AX(24 h) + 2xSEM: 1.97 foci
  pH2AX(24 h): 1.16 foci
[1]; 5FU 3.00 μM
  pH2AX(24 h) + 2xSEM: 1.93 foci
  pH2AX(24 h): 1.38 foci
[1]; 5FU 10.00 μM
  pH2AX(24 h) + 2xSEM: 0.51 foci
  pH2AX(24 h): 0.30 foci
[1]; 5FU 30.00 μM
  pH2AX(24 h) + 2xSEM: 2.01 foci
  pH2AX(24 h): 1.18 foci
[1]; control cell line MRC9
  reference concentration Cref defined by NpH2AX(24 h, Cref)+2σ=2: 30 µM
[2]; 5FU 1.00 μM
  pH2AX(24 h) + 2xSEM: 3.32 foci
  pH2AX(24 h): 2.70 foci
[2]; 5FU 3.00 μM
  pH2AX(24 h) + 2xSEM: 2.43 foci
  pH2AX(24 h): 2.41 foci
[2]; 5FU 10.00 μM
  pH2AX(24 h) + 2xSEM: 3.87 foci
  pH2AX(24 h): 2.96 foci
[2]; 5FU 30.00 μM
  pH2AX(24 h) + 2xSEM: 2.38 foci
  pH2AX(24 h): 2.38 foci
[2]; GM02718, 5FU concentration of 30 μM, 24 h
  number of pH2AX foci: approximately 2.38 foci
[2]; cell line GM02718 at Cref 30 μM
  genotoxic risk group: group II
[3]; 03HLS, 5FU 1.00 μM
  pH2AX(24 h) + 2xSEM: 1.49 foci
  pH2AX(24 h): 1.40 foci
[3]; 03HLS, 5FU 3.00 μM
  pH2AX(24 h) + 2xSEM: 2.26 foci
  pH2AX(24 h): 1.69 foci
[3]; 03HLS, 5FU 10.00 μM
  pH2AX(24 h) + 2xSEM: 1.69 foci
  pH2AX(24 h): 1.63 foci
[3]; 03HLS, 5FU 30.00 μM
  pH2AX(24 h) + 2xSEM: 2.59 foci
  pH2AX(24 h): 2.00 foci
[3]; 03HLS, 5FU concentration of 30 μM, 24 h
  number of pH2AX foci: ~2.59 foci
[3]; cell line 03HLS at Cref 30 μM
  genotoxic risk group: group II

## [Cl][Cd][Cl] [CdCl2]
[4]; 10 μM
  pH2AX: 1.9 foci
[4]; 30 μM
  pH2AX: 3.7 foci
[4]; 100 μM
  pH2AX: 8.3 foci
[5]; 10 μM
  Micronuclei: 3.5 per 100 cells
[5]; 30 μM
  Micronuclei: 9 per 100 cells
[5]; 100 μM
  Micronuclei: 12.25 per 100 cells
[6]; NpH2AX(24 h) < 2, determined from data of table 4
  Reference concentration Cref: 10 µM
[6]; NpH2AX(24 h) > 8
  Prediction based on algorithm: concentration above which “Group III” risk: predicted above 100 μM

Source: US20180238860A1, “INDIVIDUAL METHOD PREDICTIVE OF THE DNA-BREAKING GENOTOXIC EFFECTS OF CHEMICAL OR BIOCHEMICAL AGENTS” (priority 2015, published 2018)
